pIC50: −log10 of the molar value. The source made the active and inactive calls. The calls are words filed in the database; no cut-off is given here. Where a SMILES comes first, the peptide text is derived from it. Bridges are numbered along the chain shown (N, C = ends). Triazole bridges read from a SMILES are 1,4-linked. [ ]: non-standard residue; d: D form. 2Nal = N[C@@H](Cc1ccc2ccccc2c1)C(=O)O; Dap(N3) = [N-]=[N+]=NC[C@H](N)C(=O)O; Pra = C#CC[C@H](N)C(=O)O
Key:
[1] = molecular target: T1, C-X-C chemokine receptor type 4 (Homo sapiens, UniProt P61073); assay: Binding affinity to CXCR4 (unknown origin) overexpressed in human CCRF-CEM cells assessed as inhibition of ant-CXCR4 PE-antibody binding to receptor preincubated with compound for 45 mins followed by anti-CXCR4 PE-antibody addition and measured after 30 mins by flow cytometry based competitive binding assay; format: cell-based
T1 sequence (P61073 whole entry): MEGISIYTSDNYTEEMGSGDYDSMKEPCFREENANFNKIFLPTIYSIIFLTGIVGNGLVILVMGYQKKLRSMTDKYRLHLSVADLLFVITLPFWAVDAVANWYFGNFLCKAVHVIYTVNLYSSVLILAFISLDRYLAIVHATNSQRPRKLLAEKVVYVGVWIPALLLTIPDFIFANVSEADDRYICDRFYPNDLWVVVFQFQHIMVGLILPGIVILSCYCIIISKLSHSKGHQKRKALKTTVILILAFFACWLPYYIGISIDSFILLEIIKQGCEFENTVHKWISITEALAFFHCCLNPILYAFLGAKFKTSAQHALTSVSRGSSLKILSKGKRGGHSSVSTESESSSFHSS

[2] = molecular target: T1, C-X-C chemokine receptor type 4; assay: Agonist activity at CXCR4 (unknown origin); format: functional
[3] = Stability of compound in PBS at pH 7.4 assessed as parent compound remaining at 10 uM measured immediately in presence of GSH by RP-HPLC analysis; format: physicochemical; conditions: PBS with GSH, read-out: Stability
[4] = Stability of compound in PBS at pH 7.4 assessed as parent compound remaining at 10 uM measured after 4 hrs in presence of GSH by RP-HPLC analysis; format: physicochemical; conditions: PBS with GSH, read-out: Stability
[5] = tested on: CCRF-CEM; assay: Inhibition of CXCL12-mediated cell migration in human CCRF-CEM cells expressing CXCR4 at 0.01 uM incubated for 6 hrs by DAPI staining based fluorescence microscopic analysis; format: functional
[6] = Stability of compound in PBS at pH 7.4 assessed as parent compound remaining at 10 uM measured after 8 hrs in presence of GSH by RP-HPLC analysis; format: physicochemical; conditions: PBS with GSH, read-out: Stability
[7] = molecular target: T1, C-X-C chemokine receptor type 4; assay: Antagonist activity at GFP-tagged CXCR4 (unknown origin) transfected in CHO cells assessed as inhibition of CXCL12-induced cytoplasmic translocation at 0.1 to 1 uM incubated with compound for 45 mins with subsequent CXCL12 addition and measured at 30 to 90 mins by DAPI staining based fluorescence microscopic analysis; format: cell-based; conditions: filed as antagonist, dose 0.1-1 µM, time 30-90 min
[8] = molecular target: T1, C-X-C chemokine receptor type 4; assay: Agonist activity at CXCR4 (unknown origin) transfected in human CCRF-CEM cells assessed as induction of internalization at 0.1 uM incubated for 45 mins by flow cytometric analysis; format: functional, cell-based
[9] = molecular target: T1, C-X-C chemokine receptor type 4; assay: Agonist activity at GFP-tagged CXCR4 (unknown origin) transfected in CHO cells assessed as induction of internalization at 0.1 to 1 uM incubated with compound for 45 mins and measured at 30 to 90 mins by DAPI staining based fluorescence microscopic analysis; format: functional, cell-based; conditions: dose 0.1-1 µM, time 30-90 min
[10] = molecular target: T1, C-X-C chemokine receptor type 4; assay: Displacement of [125I]-CXCL12 from CXCR4 (unknown origin) overexpressed in human CCRF-CEM cells incubated for 1 hrs by gamma-counter; format: cell-based
[11] = molecular target: T1, C-X-C chemokine receptor type 4; assay: Antagonist activity at CXCR4 (unknown origin) transfected in human CCRF-CEM cells assessed as inhibition of CXCL12-induced internalization at 0.1 to 1 uM preincubated for 45 mins followed by CXCL12 addition and measured after 30 mins by flow cytometric analysis; format: cell-based; conditions: filed as antagonist, dose 0.1-1 µM, time 75.0 min
[12] = molecular target: Atypical chemokine receptor 3 (Homo sapiens) (UniProt P25106); assay: Binding affinity to CXCR7 (unknown origin) overexpressed in human MCF7 cells upto 10 uM preincubated for 45 mins followed by anti-CXCR7-APC antibody addition and measured after 30 mins by flow cytometric analysis; format: cell-based; conditions: time 75.0 min
Atypical chemokine receptor 3 (Homo sapiens), sequence (P25106 whole entry): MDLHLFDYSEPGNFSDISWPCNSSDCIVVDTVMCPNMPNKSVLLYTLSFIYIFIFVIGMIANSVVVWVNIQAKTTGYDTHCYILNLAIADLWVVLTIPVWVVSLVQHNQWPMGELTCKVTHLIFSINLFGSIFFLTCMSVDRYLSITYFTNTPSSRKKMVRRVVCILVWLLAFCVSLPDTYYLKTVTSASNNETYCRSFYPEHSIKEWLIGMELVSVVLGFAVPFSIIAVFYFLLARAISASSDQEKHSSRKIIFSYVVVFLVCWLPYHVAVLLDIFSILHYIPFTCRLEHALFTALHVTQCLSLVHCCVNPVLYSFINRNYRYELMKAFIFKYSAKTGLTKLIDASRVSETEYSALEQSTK

[13] = Stability of compound in PBS at pH 7.4 assessed as parent compound remaining at 10 uM measured after 1 hrs in presence of GSH by RP-HPLC analysis; format: physicochemical; conditions: PBS with GSH, read-out: Stability
[14] = tested on: CCRF-CEM; assay: Inhibition of CXCL12-mediated cell migration in human CCRF-CEM cells expressing CXCR4 incubated for 6 hrs by DAPI staining based fluorescence microscopic analysis; format: functional; conditions: dose 0.01-10 µM
[15] = Stability of compound in PBS at pH 7.4 assessed as parent compound remaining at 10 uM measured after 2 hrs in presence of GSH by RP-HPLC analysis; format: physicochemical; conditions: PBS with GSH, read-out: Stability
[16] = tested on: CCRF-CEM; assay: Inhibition of CXCL12-mediated cell migration in human CCRF-CEM cells expressing CXCR4 at 0.01 to 10 uM incubated for 6 hrs by DAPI staining based fluorescence microscopic analysis; format: functional; conditions: dose 0.01-10 µM

CC(=O)N[C@@H](CCCNC(=N)N)C(=O)N[C@@H](C)C(=O)N[C@@H]1CCC(=O)NC[C@@H](C(=O)O)NC(=O)[C@H](Cc2c[nH]cn2)NC(=O)[C@H](Cc2ccc3ccccc3c2)NC(=O)[C@H](CCCNC(=N)N)NC1=O
pIC50 [1]: 7.05

CC(=O)N[C@@H](CCCNC(=N)N)C(=O)N[C@@H](C)C(=O)N[C@H]1CC(=O)NCCC[C@@H](C(=O)O)NC(=O)[C@H](Cc2c[nH]cn2)NC(=O)[C@H](Cc2ccc3ccccc3c2)NC(=O)[C@H](CCCNC(=N)N)NC1=O
pIC50 [1]: < 8.00

CC(=O)N[C@@H](CCCNC(=N)N)C(=O)N[C@@H](C)C(=O)N[C@H]1CCC(=O)NCC[C@@H](C(=O)O)NC(=O)[C@H](Cc2c[nH]cn2)NC(=O)[C@H](Cc2ccc3ccccc3c2)NC(=O)[C@H](CCCNC(=N)N)NC1=O
pIC50 [1]: < 8.00

CC(=O)N[C@@H](CCCNC(=N)N)C(=O)N[C@@H](C)C(=O)N[C@@H]1CCC(=O)NCCCC[C@@H](C(=O)O)NC(=O)[C@H](Cc2c[nH]cn2)NC(=O)[C@H](Cc2ccc3ccccc3c2)NC(=O)[C@H](CCCNC(=N)N)NC1=O
pIC50 [1]: < 8.00

CC(=O)N[C@@H](CCCNC(=N)N)C(=O)N[C@@H](C)C(=O)N[C@@H]1CC(=O)NC[C@@H](C(=O)O)NC(=O)[C@H](Cc2c[nH]cn2)NC(=O)[C@H](Cc2ccc3ccccc3c2)NC(=O)[C@H](CCCNC(=N)N)NC1=O
pIC50 [1]: 5.50

CC(=O)N[C@@H](CCCNC(=N)N)C(=O)N[C@@H](C)C(=O)N[C@H]1CCC(=O)NCCC[C@@H](C(=O)O)NC(=O)[C@H](Cc2c[nH]cn2)NC(=O)[C@H](Cc2ccc3ccccc3c2)NC(=O)[C@H](CCCNC(=N)N)NC1=O
pIC50 [1]: < 8.00

CC(=O)N[C@@H](CCCNC(=N)N)C(=O)N[C@@H](C)C(=O)N[C@@H]1CNC(=O)C[C@@H](C(=O)O)NC(=O)[C@H](Cc2c[nH]cn2)NC(=O)[C@H](Cc2ccc3ccccc3c2)NC(=O)[C@H](CCCNC(=N)N)NC1=O
pIC50 [1]: 5.44

CC(=O)N[C@@H](CCCNC(=N)N)C(=O)N[C@@H](C)C(=O)N[C@H]1CCC(=O)NC[C@@H](C(=O)O)NC(=O)[C@H](Cc2c[nH]cn2)NC(=O)[C@H](Cc2ccc3ccccc3c2)NC(=O)[C@H](CCCNC(=N)N)NC1=O
pIC50 [1]: 6.29

CC(=O)N[C@@H](CCCNC(=N)N)C(=O)N[C@@H](C)C(=O)N[C@H]1Cc2cnnn2CC[C@@H](C(=O)O)NC(=O)[C@H](Cc2c[nH]cn2)NC(=O)[C@H](Cc2ccc3ccccc3c2)NC(=O)[C@H](CCCNC(=N)N)NC1=O
pIC50 [2]: 7.51

CC(=O)N[C@@H](CCCNC(=N)N)C(=O)N[C@@H](C)C(=O)N[C@H]1CNC(=O)CC[C@@H](C(=O)O)NC(=O)[C@H](Cc2c[nH]cn2)NC(=O)[C@H](Cc2ccc3ccccc3c2)NC(=O)[C@H](CCCNC(=N)N)NC1=O
remaining at 0 h, 10 µM [3]: 100% | remaining at 4 h, 10 µM [4]: 100% | inhibition [5]: Active | remaining at 8 h, 10 µM [6]: 100% | Activity [7]: Active | Activity [8]: inactive | Activity [9]: inactive | pIC50 [10]: 8.41 | Activity [11]: Active | Activity [12]: inactive | pIC50 [1]: 8.11 | remaining at 1 h, 10 µM [13]: 100% | inhibition [14]: Dose-Dependent Effect | remaining at 2 h, 10 µM [15]: 100%

CC(=O)N[C@@H](CCCNC(=N)N)C(=O)N[C@@H](C)C(=O)N[C@@H]1CC(=O)NCCC[C@@H](C(=O)O)NC(=O)[C@H](Cc2c[nH]cn2)NC(=O)[C@H](Cc2ccc3ccccc3c2)NC(=O)[C@H](CCCNC(=N)N)NC1=O
pIC50 [1]: 5.69

CC(=O)N[C@@H](CCCNC(=N)N)C(=O)N[C@@H](C)C(=O)N[C@@H]1CC(=O)NCC[C@@H](C(=O)O)NC(=O)[C@H](Cc2c[nH]cn2)NC(=O)[C@H](Cc2ccc3ccccc3c2)NC(=O)[C@H](CCCNC(=N)N)NC1=O
pIC50 [1]: 6.15

CC(=O)N[C@@H](CCCNC(=N)N)C(=O)N[C@@H](C)C(=O)N[C@@H]1CCC(=O)NCC[C@@H](C(=O)O)NC(=O)[C@H](Cc2c[nH]cn2)NC(=O)[C@H](Cc2ccc3ccccc3c2)NC(=O)[C@H](CCCNC(=N)N)NC1=O
pIC50 [1]: 6.62

CC(=O)N[C@@H](CCCNC(=N)N)C(=O)N[C@@H](C)C(=O)N[C@H]1CC(=O)NCC[C@@H](C(=O)O)NC(=O)[C@H](Cc2c[nH]cn2)NC(=O)[C@H](Cc2ccc3ccccc3c2)NC(=O)[C@H](CCCNC(=N)N)NC1=O
pIC50 [1]: 6.12

CC(=O)N[C@@H](CCCNC(=N)N)C(=O)N[C@@H](C)C(=O)N[C@@H]1CNC(=O)CC[C@@H](C(=O)O)NC(=O)[C@H](Cc2c[nH]cn2)NC(=O)[C@H](Cc2ccc3ccccc3c2)NC(=O)[C@H](CCCNC(=N)N)NC1=O
pIC50 [1]: 6.09

CC(=O)N[C@@H](CCCNC(=N)N)C(=O)N[C@@H](C)C(=O)N[C@H]1CC(=O)NCCCC[C@@H](C(=O)O)NC(=O)[C@H](Cc2c[nH]cn2)NC(=O)[C@H](Cc2ccc3ccccc3c2)NC(=O)[C@H](CCCNC(=N)N)NC1=O
pIC50 [1]: < 8.00

CC(=O)N[C@@H](CCCNC(=N)N)C(=O)N[C@@H](C)C(=O)N[C@@H]1CSSC(C)(C)[C@@H](C(=O)O)NC(=O)[C@H](Cc2cnc[nH]2)NC(=O)[C@H](Cc2ccc3ccccc3c2)NC(=O)[C@H](CCCNC(=N)N)NC1=O
remaining at 0 h, 10 µM [3]: 100% | remaining at 4 h, 10 µM [4]: 65% | remaining at 8 h, 10 µM [6]: 52% | pIC50 [10]: 7.82 | pIC50 [1]: 8.82 | remaining at 1 h, 10 µM [13]: 88% | remaining at 2 h, 10 µM [15]: 79%

CC(=O)N[C@@H](CCCNC(=N)N)C(=O)N[C@@H](C)C(=O)N[C@H]1CC(=O)NC[C@@H](C(=O)O)NC(=O)[C@H](Cc2c[nH]cn2)NC(=O)[C@H](Cc2ccc3ccccc3c2)NC(=O)[C@H](CCCNC(=N)N)NC1=O
pIC50 [1]: < 8.00

CC(=O)N[C@@H](CCCNC(=N)N)C(=O)N[C@@H](C)C(=O)N[C@H]1CSSC(C)(C)[C@H](C(=O)O)NC(=O)[C@H](Cc2c[nH]cn2)NC(=O)[C@H](Cc2ccc3ccccc3c2)NC(=O)[C@H](CCCNC(=N)N)NC1=O
Activity [7]: Active | Activity [8]: inactive | Activity [9]: inactive | Activity [11]: Active | Activity [12]: inactive | inhibition [16]: Active

CC(=O)N[C@@H](CCCNC(=N)N)C(=O)N[C@@H](C)C(=O)N[C@@H]1CC(=O)NCCCC[C@@H](C(=O)O)NC(=O)[C@H](Cc2c[nH]cn2)NC(=O)[C@H](Cc2ccc3ccccc3c2)NC(=O)[C@H](CCCNC(=N)N)NC1=O
pIC50 [1]: 5.59

CC(=O)N[C@@H](CCCNC(=N)N)C(=O)N[C@@H](C)C(=O)N[C@H]1CCC(=O)NCCCC[C@@H](C(=O)O)NC(=O)[C@H](Cc2c[nH]cn2)NC(=O)[C@H](Cc2ccc3ccccc3c2)NC(=O)[C@H](CCCNC(=N)N)NC1=O
pIC50 [1]: < 8.00

CC(=O)N[C@@H](CCCNC(=N)N)C(=O)N[C@@H](C)C(=O)N[C@H]1CNC(=O)C[C@@H](C(=O)O)NC(=O)[C@H](Cc2c[nH]cn2)NC(=O)[C@H](Cc2ccc3ccccc3c2)NC(=O)[C@H](CCCNC(=N)N)NC1=O
pIC50 [1]: 6.84

CC(=O)N[C@@H](CCCNC(=N)N)C(=O)N[C@@H](C)C(=O)N[C@@H]1CCC(=O)NCCC[C@@H](C(=O)O)NC(=O)[C@H](Cc2c[nH]cn2)NC(=O)[C@H](Cc2ccc3ccccc3c2)NC(=O)[C@H](CCCNC(=N)N)NC1=O
pIC50 [1]: < 8.00

CC(=O)N[C@@H](CCCNC(=N)N)C(=O)N[C@@H](C)C(=O)N[C@H]1Cn2cc(nn2)C[C@@H](C(=O)O)NC(=O)[C@H](Cc2c[nH]cn2)NC(=O)[C@H](Cc2ccc3ccccc3c2)NC(=O)[C@H](CCCNC(=N)N)NC1=O (Ac-RA[Dap(N3)]R[2Nal]H[Pra]-OH; triazole 3-7)
pIC50 [10]: 7.44
